Where a SMILES comes first, the peptide text is derived from it. Bridges are numbered along the chain shown (N, C = ends). [ ]: non-standard residue; d: D form. The star is where a group is joined. X1 = NC[C@@H](CC(=O)*)c1cccc(Cl)c1; Dab = NCC[C@H](N)C(=O)O; Dap = NC[C@H](N)C(=O)O
What was measured:
[1] = test system: E. coli ATCC 25922 (SEN) and E. coli NCTC13846 (MDR); experiment: microbe, parasite or virus in culture; format: cell-based, Escherichia coli; conditions: for MIC of ancestor: ancestor strain; for MIC: across three biological replicates
Procedure, shortened: (§1)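 Inoculum was 5 × 10^5 cells/mL in cation-adjusted MHB2 (SCH79797 excepted) across 11–16-step dilution series in duplicate. Relative MIC divides evolved-strain MIC by ancestor MIC.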

[2] = test system: A. baumannii ATCC 17978 (SEN) and A. baumannii ATCC BAA-1605 (MDR); experiment: microbe, parasite or virus in culture; format: cell-based, Acinetobacter baumannii; conditions: for MIC: across three biological replicates
Procedure, shortened: as §1

[3] = test system: E. coli ATCC 25922 (SEN) and E. coli NCTC13846 (MDR); experiment: Adaptive laboratory evolution (ALE), relative MIC of evolved lines; format: cell-based, Escherichia coli
Procedure, shortened: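 Ten parallel populations per antibiotic–ancestor pair were evolved in MHB at 37 °C, starting near 50% growth-inhibiting drug. Every 72 h they were passaged into 0.5–2.5× increasing concentrations, keeping the highest-drug well with OD600 > 0.2.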

CC(C)C[C@@H]1NC(=O)[C@@H](Cc2ccccc2)NC(=O)[C@H](CCN)NC(=O)[C@@H](NC(=O)[C@H](CN)NC(=O)[C@@H](NC(=O)C[C@H](CN)c2cccc(Cl)c2)[C@@H](C)O)CCNC(=O)[C@H]([C@@H](C)O)NC(=O)[C@H](CCN)NC(=O)[C@H](CCN)NC1=O [SPR206] (X1-T[Dap][Dab][Dab][dF]L[Dab][Dab]T; lactam 3-C (inferred); N-terminus assumed)
MIC of ancestor ([1]; E. coli ATCC 25922 (EC-SEN)): 0.25 µg/mL
MIC of ancestor ([1]; E. coli ATCC 25922 (EC-SEN), sheet fig 2a): 0.25 µg/mL
MIC of ancestor ([1]; E. coli NCTC 13846 (EC-MDR)): 4 µg/mL
MIC of ancestor ([1]; E. coli NCTC 13846 (EC-MDR), sheet fig 2a): 4 µg/mL
MIC ([1]; Escherichia coli ATCC 25922 (EC-SEN)): 0.25 µg/mL
MIC ([1]; Escherichia coli NCTC 13846 (EC-MDR)): 4 µg/mL
MIC of ancestor ([2]; A. baumannii ATCC 17978 (AB-SEN), ancestor strain): 0.125 µg/mL
MIC of ancestor ([2]; A. baumannii ATCC BAA 1605 (AB-MDR), ancestor strain): 0.125 µg/mL
MIC of ancestor ([2]; Acinetobacter baumannii ATCC 17978 (AB-SEN), ancestor strain, sheet fig 2a): 0.125 µg/mL
MIC ([2]; Acinetobacter baumannii ATCC 17978 (AB-SEN)): 0.125 µg/mL
MIC of ancestor ([2]; Acinetobacter baumannii ATCC BAA 1605 (AB-MDR), ancestor strain, sheet fig 2a): 0.125 µg/mL
MIC ([2]; Acinetobacter baumannii ATCC BAA-1605 (AB-MDR)): 0.125 µg/mL
MIC of ancestor ([2]; ancestor AB-SEN (Acinetobacter baumannii ATCC 17978)): 0.125 µg/mL
Relative MIC ([3]; ALE, E. coli ATCC 25922 (EC-SEN), evolved line 1): 512
Relative MIC ([3]; ALE, E. coli ATCC 25922 (EC-SEN), evolved line 2): 256
Relative MIC ([3]; ALE, E. coli ATCC 25922 (EC-SEN), evolved line 3): 512
Relative MIC ([3]; ALE, E. coli ATCC 25922 (EC-SEN), evolved line 4): 256
Relative MIC ([3]; ALE, E. coli ATCC 25922 (EC-SEN), evolved line 5): 128
Relative MIC ([3]; ALE, E. coli ATCC 25922 (EC-SEN), evolved line 6): 512
Relative MIC ([3]; ALE, E. coli ATCC 25922 (EC-SEN), evolved line 7): 256
Relative MIC ([3]; ALE, E. coli ATCC 25922 (EC-SEN), evolved line 8): 128
Relative MIC ([3]; ALE, E. coli ATCC 25922 (EC-SEN), evolved line 9): 256
Relative MIC ([3]; ALE, E. coli ATCC 25922 (EC-SEN), evolved line 10): 16
Relative MIC ([3]; ALE, E. coli NCTC 13846 (EC-MDR), evolved line 1): 8
Relative MIC ([3]; ALE, E. coli NCTC 13846 (EC-MDR), evolved line 2): 16
Relative MIC ([3]; ALE, E. coli NCTC 13846 (EC-MDR), evolved line 3): 16
Relative MIC ([3]; ALE, E. coli NCTC 13846 (EC-MDR), evolved line 4): 16
Relative MIC ([3]; ALE, E. coli NCTC 13846 (EC-MDR), evolved line 5): 32
Relative MIC ([3]; ALE, E. coli NCTC 13846 (EC-MDR), evolved line 6): 8
Relative MIC ([3]; ALE, E. coli NCTC 13846 (EC-MDR), evolved line 7): 8
Relative MIC ([3]; ALE, E. coli NCTC 13846 (EC-MDR), evolved line 8): 16
Relative MIC ([3]; ALE, E. coli NCTC 13846 (EC-MDR), evolved line 9): 16
Relative MIC ([3]; ALE, E. coli NCTC 13846 (EC-MDR), evolved line 10): 32
Relative MIC (log10) ([3]; EC-MDR (Escherichia coli NCTC 13846), evolved line 2): 1.204 log10
Relative MIC (log10) ([3]; EC-MDR (Escherichia coli NCTC 13846), evolved line 4): 1.204 log10
Relative MIC (log10) ([3]; EC-MDR (Escherichia coli NCTC 13846), evolved line 8): 1.204 log10
Relative MIC (log10) ([3]; EC-MDR (Escherichia coli NCTC 13846), evolved line 9): 1.204 log10
Relative MIC (log10) ([3]; EC-MDR (Escherichia coli NCTC 13846), evolved line 10): 1.505 log10
MIC of evolved line ([3]; EC-MDR (NCTC 13846), evolved line 1): 32 µg/mL
Relative MIC ([3]; EC-MDR (NCTC 13846), evolved line 1, evolved vs ancestor): 8
MIC of evolved line ([3]; EC-MDR (NCTC 13846), evolved line 2): 64 µg/mL
Relative MIC ([3]; EC-MDR (NCTC 13846), evolved line 2, evolved vs ancestor): 16
Relative MIC ([3]; EC-MDR (NCTC 13846), evolved line 3, evolved vs ancestor): 16
MIC of evolved line ([3]; EC-MDR (NCTC 13846), evolved line 4): 64 µg/mL
Relative MIC ([3]; EC-MDR (NCTC 13846), evolved line 4, evolved vs ancestor): 16
Relative MIC ([3]; EC-MDR (NCTC 13846), evolved line 5, evolved vs ancestor): 32
Relative MIC ([3]; EC-MDR (NCTC 13846), evolved line 6, evolved vs ancestor): 8
MIC of evolved line ([3]; EC-MDR (NCTC 13846), evolved line 7): 32 µg/mL
Relative MIC ([3]; EC-MDR (NCTC 13846), evolved line 7, evolved vs ancestor): 8
Relative MIC ([3]; EC-MDR (NCTC 13846), evolved line 8, evolved vs ancestor): 16
Relative MIC ([3]; EC-MDR (NCTC 13846), evolved line 9, evolved vs ancestor): 16
Relative MIC ([3]; EC-MDR (NCTC 13846), evolved line 10, evolved vs ancestor): 32
MIC of evolved line ([3]; EC-MDR NCTC 13846, evolved line 3): 64 µg/mL
MIC of evolved line ([3]; EC-MDR NCTC 13846, evolved line 5): 128 µg/mL
MIC of evolved line ([3]; EC-MDR NCTC 13846, evolved line 6): 32 µg/mL
MIC of evolved line ([3]; EC-MDR NCTC 13846, evolved line 8): 64 µg/mL
MIC of evolved line ([3]; EC-MDR NCTC 13846, evolved line 9): 64 µg/mL
MIC of evolved line ([3]; EC-MDR NCTC 13846, evolved line 10): 128 µg/mL
MIC of evolved line ([3]; EC-SEN (ATCC 25922), evolved line 1): 128 µg/mL
Relative MIC ([3]; EC-SEN (ATCC 25922), evolved line 1, evolved vs ancestor): 512
MIC of evolved line ([3]; EC-SEN (ATCC 25922), evolved line 2): 64 µg/mL
Relative MIC ([3]; EC-SEN (ATCC 25922), evolved line 2, evolved vs ancestor): 256
MIC of evolved line ([3]; EC-SEN (ATCC 25922), evolved line 3): 128 µg/mL
Relative MIC ([3]; EC-SEN (ATCC 25922), evolved line 3, evolved vs ancestor): 512
MIC of evolved line ([3]; EC-SEN (ATCC 25922), evolved line 4): 64 µg/mL
Relative MIC ([3]; EC-SEN (ATCC 25922), evolved line 4, evolved vs ancestor): 256
MIC of evolved line ([3]; EC-SEN (ATCC 25922), evolved line 5): 32 µg/mL
Relative MIC ([3]; EC-SEN (ATCC 25922), evolved line 5, evolved vs ancestor): 128
MIC of evolved line ([3]; EC-SEN (ATCC 25922), evolved line 6): 128 µg/mL
Relative MIC ([3]; EC-SEN (ATCC 25922), evolved line 6, evolved vs ancestor): 512
MIC of evolved line ([3]; EC-SEN (ATCC 25922), evolved line 7): 64 µg/mL
Relative MIC ([3]; EC-SEN (ATCC 25922), evolved line 7, evolved vs ancestor): 256
MIC of evolved line ([3]; EC-SEN (ATCC 25922), evolved line 8): 32 µg/mL
Relative MIC ([3]; EC-SEN (ATCC 25922), evolved line 8, evolved vs ancestor): 128
MIC of evolved line ([3]; EC-SEN (ATCC 25922), evolved line 9): 64 µg/mL
Relative MIC ([3]; EC-SEN (ATCC 25922), evolved line 9, evolved vs ancestor): 256
MIC of evolved line ([3]; EC-SEN (ATCC 25922), evolved line 10): 4 µg/mL
Relative MIC ([3]; EC-SEN (ATCC 25922), evolved line 10, evolved vs ancestor): 16
Relative MIC (log10) ([3]; EC-SEN (Escherichia coli ATCC 25922), evolved line 3): 2.709 log10
Relative MIC (log10) ([3]; EC-SEN (Escherichia coli ATCC 25922), evolved line 4): 2.408 log10
Relative MIC (log10) ([3]; EC-SEN (Escherichia coli ATCC 25922), evolved line 6): 2.709 log10
Relative MIC (log10) ([3]; EC-SEN (Escherichia coli ATCC 25922), evolved line 9): 2.408 log10
Relative MIC (log10) ([3]; EC-SEN, Escherichia coli ATCC 25922, evolved line 1): 2.709 log10
Relative MIC ([3]; Escherichia coli ATCC 25922 (EC-SEN), evolved line 1): 512
Relative MIC ([3]; Escherichia coli ATCC 25922 (EC-SEN), evolved line 2): 256
Relative MIC ([3]; Escherichia coli ATCC 25922 (EC-SEN), evolved line 3): 512
Relative MIC ([3]; Escherichia coli ATCC 25922 (EC-SEN), evolved line 4): 256
Relative MIC ([3]; Escherichia coli ATCC 25922 (EC-SEN), evolved line 5): 128
Relative MIC ([3]; Escherichia coli ATCC 25922 (EC-SEN), evolved line 6): 512
Relative MIC ([3]; Escherichia coli ATCC 25922 (EC-SEN), evolved line 7): 256
Relative MIC ([3]; Escherichia coli ATCC 25922 (EC-SEN), evolved line 8): 128
Relative MIC ([3]; Escherichia coli ATCC 25922 (EC-SEN), evolved line 9): 256
Relative MIC ([3]; Escherichia coli ATCC 25922 (EC-SEN), evolved line 10): 16
Relative MIC ([3]; Escherichia coli NCTC 13846 (EC-MDR), evolved line 1): 8
Relative MIC ([3]; Escherichia coli NCTC 13846 (EC-MDR), evolved line 2): 16
Relative MIC ([3]; Escherichia coli NCTC 13846 (EC-MDR), evolved line 3): 16
Relative MIC ([3]; Escherichia coli NCTC 13846 (EC-MDR), evolved line 4): 16
Relative MIC ([3]; Escherichia coli NCTC 13846 (EC-MDR), evolved line 5): 32
Relative MIC ([3]; Escherichia coli NCTC 13846 (EC-MDR), evolved line 6): 8
Relative MIC ([3]; Escherichia coli NCTC 13846 (EC-MDR), evolved line 7): 8
Relative MIC ([3]; Escherichia coli NCTC 13846 (EC-MDR), evolved line 8): 16
Relative MIC ([3]; Escherichia coli NCTC 13846 (EC-MDR), evolved line 9): 16
Relative MIC ([3]; Escherichia coli NCTC 13846 (EC-MDR), evolved line 10): 32
